Here are results for 3 compounds from patent publication US20050022267A1, “Methods for Agrobacterium-mediated transformation of dandelion” (priority 2003, published 2005).

For one assay, the system named is dandelion leaf explants. The assay can be described thus: Effect of maltose on shoot regeneration in shoot induction media. The following applies: 1% maltose (w/v) in shoot induction media. The format is cell-based. The method, then:
Leaf explants derived from dandelion plants were cultured in shoot induction media containing no maltose (w/v) or 1% maltose (w/v) to compare the efficacy of maltose on shoot production.

The conditions of assay [1]: isolated from dandelion roots; cited from earlier work.

Take `OC[C@H]1O[C@H](O[C@H]2[C@H](O)[C@@H](O)C(O)O[C@@H]2CO)[C@H](O)[C@@H](O)[C@@H]1O` (mixture of isomers) [Maltose, maltose]: the “shoot production in comparison to no maltose” value with dandelion leaf explants is “improves shoot production”. Moreover, the “# of Shoots per Explants” value in the assay on dandelion leaf explants (leaf explants) is recorded as 25.
Turning to `C=C1CC[C@]2(C)CC[C@]3(C)[C@H](CC[C@@H]4[C@@]5(C)CC[C@H](O)C(C)(C)[C@@H]5CC[C@]43C)[C@H]2[C@@H]1C` [taraxasterol], the anti-tumor-promoting activity entry in assay [1] was “potent anti-tumor-promoting activity”.
For the compound `CC1(C)CC[C@]2(C)CC=C3[C@]4(C)CC[C@H]5C(C)(C)[C@@H](O)CC[C@]5(C)[C@H]4CC[C@@]3(C)[C@@H]2C1` [taraxerol], the anti-tumor-promoting activity result in assay [1] is “potent anti-tumor-promoting activity”.
